The structures appear in SMILES notation.

This note sets out measurements from ChEMBL document CHEMBL1127099, “Anticonvulsant activity of glycine-site NMDA antagonists. 2. trans 2-carboxy-4-substituted tetrahydroquinolines” (Bioorg Med Chem Lett, 1993).

Series [1] can be described thus: Ratio of ED50 values administered intracerebroventricular to that of antagonistic potency (Kb). In kind it is functional.
The species entered for series [2] is Rattus norvegicus. Briefly: Tested for the antagonistic potency for blockade of NMDA-induced depolarizations in rat cortical slices. In kind it is functional.
In series [3] the test system is Mus musculus. In words: Tested for the anticonvulsant activity in DBA/2 mice after 30 mins of intraperitoneal administration. It is filed as functional. The note with it: ip, 0.5 h.
Series [4] has as its target Glutamate NMDA receptor. In words: Tested for the binding affinity at glycine recognition site of the NMDA receptor in rat cortical membranes using radiolabeled [3H]- L-689 560. In kind it is cell membranes, Membrane.
Series [5] is described as follows: Plasma half-life was tested. It is filed as ADME, cell-free.
For series [6], the target named is Glutamate NMDA receptor. In words: Tested for the binding affinity at glycine recognition site of the NMDA receptor in rat cortical membranes using radiolabeled [3H]-L-689,560 560. In kind it is cell membranes, Membrane.
Series [7] in a line: Partition coefficient (logP). In kind it is physicochemical. To be noted: octanol/water.
The test system of series [8] is Mus musculus. Briefly: Tested for the anticonvulsant activity in DBA/2 mice after 15 mins of intracerebroventricular administration at pH 8.0. It is filed as functional.

As usually defined, the Kb is the equilibrium dissociation constant of an antagonist, usually derived from a functional assay. A lower Kb goes with higher antagonist affinity. By IC50 is commonly meant the midpoint of a concentration-inhibition curve. Read a low IC50 as inhibition by little substance. In the case of `NC(Cc1ccc(CC(=O)N[C@H]2C[C@H](C(=O)O)Nc3cc(Cl)cc(Cl)c32)cc1)C(=O)O` (stereo partly drawn), in series [1], the Ratio is on record as 0.6. This compound also returned a Kb in series [2] of 840 nM. The compound also yielded an ED50 in series [3] of 29 mg/kg. In series [4], this compound gave an IC50 of 32 nM.

As usually defined, the half-life is how long it takes for the measured level to halve. A high value points to slow decline. For `NCc1ccc(CC(=O)N[C@H]2C[C@H](C(=O)O)Nc3cc(Cl)cc(Cl)c32)cc1`, the Ratio in series [1] was 15. In series [2], this compound displayed a Kb of 240 nM. In series [3], the ED50 amounted to 39 mg/kg. In addition, the half-life in series [5] turned out to be 1.83 h. In series [4], this compound gave an IC50 of 19 nM.

In series [2], `O=C(Nc1ccccc1)N[C@H]1C[C@H](C(=O)O)Nc2cc(Cl)cc(Cl)c21` came in with a Kb of 130 nM. Further, in series [3], the ED50 was more than 100 mg/kg.

Turning to `O=C(O)C[C@H]1C[C@H](C(=O)O)Nc2cc(Cl)cc(Cl)c21`, in series [4], the IC50 was 74 nM.

For orientation: logP means the decadic logarithm of the partition coefficient of the neutral form, usually between octanol and water. Higher therefore signals higher lipophilicity. With `O=C(Cc1ccccc1)N[C@H]1C[C@H](C(=O)O)Nc2cc(Cl)cc(Cl)c21`, the Ratio in series [1] is reported as 9. In series [6], the IC50 turned out to be 14 nM. The same compound showed a Kb in series [2] of 530 nM. The same compound returned a logP in series [7] of 0.55. In series [3], the ED50 is 46 mg/kg.

As to `O=[N+]([O-])c1cc([N+](=O)[O-])c2nc(O)c(O)nc2c1`, the Ratio in series [1] is more than 16. Further, in series [2], the Kb was found to be 1230 nM. The compound also returned an ED50 in series [3] of more than 10 mg/kg.

`CN(C(=O)Nc1ccccc1)[C@H]1C[C@H](C(=O)O)Nc2cc(Cl)cc(Cl)c21` displayed an IC50 in series [4] of 9 nM.

In series [3], `O=C(O)c1cc(O)c2c(Cl)cc(Cl)cc2n1` had an ED50 of more than 250 mg/kg.

Consider `COC(=O)[C@H]1C[C@H](NC(=O)Cc2ccc(CN)cc2)c2c(Cl)cc(Cl)cc2N1.Cl`, for which, in series [3], the ED50 came out at 31.5 mg/kg.

In series [6], `O=C(C[C@H]1C[C@H](C(=O)O)Nc2cc(Cl)cc(Cl)c21)Nc1ccccc1` registered an IC50 of 19 nM.

Take `C/C(=C\C(N)C(=O)O)CP(=O)(O)O` (stereo not drawn) [CGP-37849]: the Ratio in series [1] turned out to be 0.1. Moreover, the ED50 in series [8] is 0.02 nM; in series [3], 0.8 mg/kg. Also, the Kb in series [2] amounted to 200 nM.

As for `C[C@]12N[C@H](Cc3ccccc31)c1ccccc12` [DIZOCILPINE], the Ratio in series [1] amounted to 23. In addition, the Kb in series [2] is 80 nM. This compound showed an ED50 in series [3] of 0.2 mg/kg.

In series [2], `O=C(O)c1cc(=O)c2ccccc2[nH]1` [TRANSTORINE] displayed a Kb of 154000 nM. The ED50 in series [3] is more than 250 mg/kg.
